Results from US20090325884A1, “Method for Detecting Autoantibodies Formed in Rheumatoid Arthritis” (PROCOLLAGEN OY, priority 2005, published 2009).
Marks after values point to notes of the source that are not given here. Where no end group is shown, it is not given here. [ ]: non-standard residue; d: D form. Cit = NC(=O)NCCC[C@H](N)C(=O)O

Columns and labels:
human sera = assay: ELISA: binding of biotinylated collagen peptides to human sera; conditions: for Controls mean ± SD absorbance: 81 sera from healthy controls, read at 450 nm; for Controls over mean + 2 SD number: number of the 81 control sera; for RA patients over mean + 2 SD number: number of the 120 RA sera, significance marks versus controls; for number of RA sera that bound more citrullinated peptide than normal (arginine) peptide: 120 RA sera; for specific binding to the citrullinated form (autoantibodies against citrullinated proteins): RA sera; for mean (variance/SD) of the differences, absorbance value of citrullinated peptide minus that of arginine peptide: control samples
Text: The serum samples from 120 patients with RA were obtained from the Division of Rheumatology of Oulu University Hospital. The controls consisted of 81 sera from healthy people matched for age and sex. Six pairs of biotinylated peptides were synthesised by NeoMPS (Strasbourg, France). […] FIGS. 1A-C show the localization of the peptides CC1-CC4 in type II collagen and their sequences; the numbers in brackets refer to arginine residues: CC1 (1059), CC2 (1048), CC3 (799) and CC4 (28). Collagenase cleavage site is shown by arrow in FIG. 1A -GPPGPQG|LAGQRGE- (SEQ ID NO:9). […] The sequence GPPGPGIDMSAFAGLGPREKGPDPLQYMXA is shown in the sequence listing as SEQ ID NO: 10. The 12 carboxy terminal amino acids represent the peptide CC1. […] One member of each pair contained the arginine predicted by the respective gene, whereas in the other member of the pair this was replaced by citrulline.
The biotinylated peptides were coupled to streptavidin-coated 96-well assay plates (BioBind Assembly, Thermo Labsystems Oy, Vantaa, Finland) at a concentration of 10 μg/well. The coupling was performed at room temperature, pH 7.5, for two hours. The streptavidin-coated wells had been blocked by the manufacturer to prevent unspecific binding.
The sera to be tested were diluted in assay buffer (10 mM Tris-HCl, 350mM NaCl, 1% BSA, 1% [vol/vol] Triton X-100, 0.5% [wt/vol] Na-deoxycholate, 0.1% SDS; pH 7.6) supplemented with 1% rabbit serum and incubated for an hour at room temperature. After washing (3 times with PBS/0.05% [vol/vol] Tween-20), 100 μl of anti-human IgG conjugated to peroxidase (Product #31412, Pierce, Rockford, Ill., USA) diluted 1:7500 in EIA buffer (20 mM Tris-HCl, 150 mM NaCl, 0.1% BSA, 0.05% Tween-20, pH 7.5) was added. After incubation for an hour at room temperature, the plates were washed (3 times with PBS/Tween-20). The bound antibodies were detected with 3,3′-5,5′-tetramethyl-benzidine (Sigma-Aldrich, St.Louis, Minn., USA) as a substrate (0.01 mg/100 μl per well in 100 mM sodium acetate trihydrate, 1.5 mM citric acid monohydrate, 0.0015% H2O2). After 30 minutes, the reaction was stopped by adding 100 μl 2M sulphuric acid/well. The plates were read at a wavelength of 450 nm in a Victor^2 instrument (Wallac, Turku, Finland) and calculated by Multicalc (Wallac). All the sera were tested in duplicate. The coefficients of variation were generally less than 10%.

[1] = tested on: IgG antibodies against the synthetic C-telopeptides of the α1 chains of human type I and II collagens; assay: Two-site chemiluminescence immunoassay with biotinylated C-telopeptides; assay type: binding
Method: The measurements were done with two-site chemiluminescence immunoassays, which detect IgG antibodies against the synthetic C-telopeptides of the α1 chains of human type I and II collagens (EKAHDGGRYYRA (SEQ ID NO:4), and EKGPDPLQYMRA (SEQ ID NO:5), or EKAHDGGRYYXA (SEQ ID NO:1), and EKGPDPLQYMXA (SEQ ID NO:3), respectively, where X stands for citrulline, from NeoMPS, Strasbourg, France). The serum samples were first diluted 1:10 in a buffer containing 10 mM Tris-HCl, 350 mM NaCl, 1% BSA, 1% [vol/vol] Triton X-100, 0.5% [wt/vol] Na-deoxycholate, 0.1% SDS; pH 7.6 and incubated with suitable concentrations of one of the above peptides (in biotinylated form) and streptavidin-coated magnetic particles for 10 minutes at 37° C. The unbound biotinylated antigen and antibodies were separated from the complex bound to the magnetic particles by aspiration of the reaction mixture and subsequent washing. Thereafter, acridinium-labeled anti-human IgG antibodies were added to the reaction mixture followed by another 10-minute incubation to produce the sandwich complex. The unbound label was separated by aspiration of the reaction mixture and subsequent washing. To the washed magnetic particles with the complex we injected the triggers 1 and 2, initiating the chemiluminescence reaction. […]

[2] = tested on: autoantibodies in sera binding citrulline containing type II collagen carboxytelopeptide; assay: Inhibition assay: citrullinated peptide ELISA with and without soluble peptide; design: species or system human; conditions: soluble peptide 200 μg/ml
Method: Preferentially it is also possible to use only citrullinated peptide assay version, where this assay is performed with standard condition and with adding the same or similar soluble peptide in assay solution (200 μg/ml).
Sera from RA patients (n=120) and controls (n=80) were diluted 1:100 in assay buffer and/or inhibiting buffer (with soluble citrulline containing peptide (200 μg/ml)). The inhibition time was 30 minutes. After the inhibition reaction, the sera were moved to the wells of streptavidin-coated 96-well assay plates to which the biotinylated citrulline containing peptides had been coupled. After washing (3 times with PBS/0.05% [vol/vol] Tween-20), 100 μl of anti-human IgG conjugated to peroxidase (Product #31412, Pierce, Rockford, Ill., USA) diluted 1:7500 in EIA buffer (20 mM Tris-HCl, 150 mM NaCl, 0.1% BSA, 0.05% Tween-20, pH 7.5) was added. After incubation for an hour at room temperature, the plates were washed (3 times with PBS/Tween-20). The bound antibodies were detected with 3,3′-5,5′-tetramethyl-benzidine (Sigma-Aldrich, St.Louis, Minn., USA) as a substrate (0.01 mg/100 μl per well in 100 mM sodium acetate trihydrate, 1.5 mM citric acid monohydrate, 0.0015% H2O2). After 30 minutes, the reaction was stopped by adding 100 μl 2M sulphuric acid/well. The plates were read at a wavelength of 450 nm in a Victor instrument (Wallac, Turku, Finland). […]

Sequence	Controls mean ± SD absorbance (human sera)	Controls over mean + 2 SD number (human sera)	RA patients over mean + 2 SD number (human sera)	mean (variance/SD) of the differences, absorbance value of citrullinated peptide minus that of arginine peptide (human sera)	other results
EKGPDPLQYMRA (listed as Homo sapiens) [CC1 Arginine peptide, C-telopeptide of the α1 chain of type II collagen]	0.181 ± 0.077	2/81	54/120***		
SAFAGLGPXEKGPD (SAFAGLGP[Cit]EKGPD; also: biotinylated (site not given here)) [CC2 Citrulline peptide]	0.135 ± 0.054	1/81	25/120***		
GPMGPXGPPGPA (GPMGP[Cit]GPPGPA; also: biotinylated (site not given here)) [CC4 Citrulline peptide]	0.184 ± 0.071	2/81	22/120***		
LAGQXGIVGLP [CC3 Arginine peptide]	0.182 ± 0.073		63/120***		
EKGPDPLQYMXA (EKGPDPLQYM[Cit]A; also: biotinylated, site not given here) [CC1]				−0.026 (SD 0.032)	number of patients' sera that bound the citrullinated peptide more strongly than the arginine peptide ([1]; 120 RA patients, p=0.074 compared to controls, not significant): 35; number of RA sera that bound more citrullinated peptide than normal (arginine) peptide (human sera): 12; specific binding to the citrullinated form (autoantibodies against citrullinated proteins) (human sera): specifically bound autoantibodies against citrullinated proteins
YDFGYDGDFYXA (YDFGYDGDFY[Cit]A; also: biotinylated (site not given here)) [listing 1 of 2 here]				+0.071 (0.252)	
EKGPDPLQYMXA (EKGPDPLQYM[Cit]A; also: biotinylated, site not given here) [CC1 Citrulline peptide]	0.155 ± 0.065	2/81	35/120***		inhibition-% with the respective soluble antigen in controls (mean±SD) ([2]; control sera diluted 1:100, 30 minutes): 5.4%±3.8; number of RA patients showing increased inhibition ([2]; out of 120, more inhibition than 13.0%): 38
GPMGPXGPPGPA (GPMGP[Cit]GPPGPA; also: biotinylated (site not given here)) [CC4]				+0.005 (0.020)	specific binding to the citrullinated form (autoantibodies against citrullinated proteins) (human sera): no specific binding
GPMGPXGPPGPA [CC4 Arginine peptide] (GPMGPRGPPGPA; also: biotinylated, site not given here) [type II collagen peptide, arginine residue 28]	0.179 ± 0.070	3/81	60/120***		
SAFAGLGPXEKGPD [CC2 Arginine peptide]	0.162 ± 0.053	3/81	50/120***		
LAGQXGIVGLP (LAGQ[Cit]GIVGLP; also: biotinylated (site not given here)) [CC3 Citrulline peptide]	0.181 ± 0.067	2/81	32/120***		
SAFAGLGPXEKGPD (SAFAGLGP[Cit]EKGPD; also: biotinylated (site not given here)) [CC2]				−0.027 (0.029)	number of RA sera that bound more citrullinated peptide than normal (arginine) peptide (human sera): two
YDFGYDGDFYXA (YDFGYDGDFY[Cit]A; also: biotinylated (site not given here)) [listing 2 of 2 here]	0.763 ± 0.356	3/81	12/120**		
EKAHDGGRYYRA (also: biotinylated, site not given here; listed as Homo sapiens) [C-telopeptide of α1(I) Arginine peptide, synthetic C-telopeptide of the α1 chain of human type I collagen]	0.288 ± 0.142	4/81	6/120^ns		
LAGQXGIVGLP (LAGQ[Cit]GIVGLP; also: biotinylated (site not given here)) [CC3]				−0.001 (0.026)	specific binding to the citrullinated form (autoantibodies against citrullinated proteins) (human sera): no specific binding
EKAHDGGRYYXA (EKAHDGGRYY[Cit]A; also: biotinylated, site not given here)	0.314 ± 0.117	2/81	24/120***	around +0.026 (0.074)	number of RA patients whose sera showed increased binding of the citrullinated peptide ([1]; out of 120 RA patients, p=0.003 compared to controls): 44; number of RA sera that bound more citrullinated peptide than normal (arginine) peptide (human sera): 20
